Results from ChEMBL document CHEMBL5154916, “Multiparameter Optimization of Naphthyridine Derivatives as Selective α5-GABAA Receptor Negative Allosteric Modulators” (J Med Chem, 2022).
pIC50, pKi: −log10 of the molar value. Values after ≈ are worked out from the molar mass of the structure shown.

Tests used:
[1] = […] in po dosed Wistar rat assessed as convulsive activity by assessing NOAEL by electroconvulsive test; type: organism-based; settings: in vivo
[2] = target: GABA-A receptor; alpha-5/beta-3/gamma-2 (Homo sapiens) (UniProt P18507+P28472+P31644); assay: Negative allosteric modulation activity at human recombinant alpha5beta3gamma2 GABAA receptor stably expressed in HEK293 cells assessed as modulation at alpha5 subunit at 1 uM by Patch clamp method; type: cell-based; settings: filed as negative allosteric modulator
[3] = Bioavailability in Wistar rat at 1 mg/kg,po or 1 mg/kg, iv by HPLC-MS/MS analysis; type: ADME, organism-based; settings: in vivo
[4] = Toxicity in po dosed Wistar rat assessed NOAEL by 4 days toxicology study; type: organism-based; settings: in vivo, time 4 day
[5] = Metabolic stability in human liver microsomes assessed as intrinsic clearance at 2.5 uM; type: ADME, Microsome; settings: read-out: CLH
[6] = test system: Rattus norvegicus; assay: Pro-cognitive activity in po dosed neonatal PCP-impaired social recognition Wistar rat model assessed as time spent social recognition administered 30 min before acquisition by social recognition test; type: functional; settings: 0.5 h, read-out: MED
[7] = Plasma protein binding in rat; type: ADME, cell-free; settings: read-out: PPB (converted)
[8] = Clearance in Wistar rat plasma at 1 mg/kg, iv by HPLC-MS/MS analysis; type: ADME, organism-based
[9] = Genotoxicity in Salmonella typhimurium up to 5000 ug/ml by Ames test; type: toxicity; settings: salmonella enterica subsp. enterica serovar typhimurium; dose < 5000 µg/ml
[10] = target: T1, Cytochrome P450 2B6 (Homo sapiens, UniProt P20813); assay: Inhibition of CYP2B6 (unknown origin); type: ADME
T1 sequence (P20813 whole entry): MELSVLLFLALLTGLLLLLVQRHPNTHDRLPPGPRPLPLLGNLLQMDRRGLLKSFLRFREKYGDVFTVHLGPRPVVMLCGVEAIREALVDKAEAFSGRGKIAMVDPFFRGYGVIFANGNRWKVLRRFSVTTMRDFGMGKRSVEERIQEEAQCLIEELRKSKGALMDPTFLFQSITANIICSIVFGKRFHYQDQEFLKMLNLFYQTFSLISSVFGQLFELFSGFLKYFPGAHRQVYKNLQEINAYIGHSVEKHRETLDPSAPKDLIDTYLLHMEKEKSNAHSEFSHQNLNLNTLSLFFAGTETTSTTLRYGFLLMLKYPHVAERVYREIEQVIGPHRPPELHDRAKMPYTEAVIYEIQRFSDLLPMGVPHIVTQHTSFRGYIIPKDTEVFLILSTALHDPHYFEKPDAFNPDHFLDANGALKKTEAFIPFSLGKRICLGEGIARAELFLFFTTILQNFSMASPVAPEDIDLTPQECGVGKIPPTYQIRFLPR

[11] = Metabolic stability in Wistar rat hepatocyte assessed as intrinsic clearance measured per 10^6 cells; type: ADME, cell-based; settings: hepatocytes, read-out: CLH
[12] = Thermodynamic solubility of the compound at pH 7.4; type: physicochemical; settings: buffer, read-out: Therm_solubility
[13] = Metabolic stability in guinea pig hepatocyte assessed as intrinsic clearance measured per 10^6 cells; type: ADME, cell-based, Cavia porcellus; settings: hepatocytes, read-out: CLH
[14] = target: T2, GABA-A receptor; alpha-5/beta-3/gamma-2 (Homo sapiens, UniProt P18507+P28472+P31644); assay: Displacement of [3H]Ro151788 from human recombinant alpha5beta3gamma2 GABAA receptor stably expressed in HEK293 cell membrane assessed as inhibition constant by radioligand binding assay; type: cell membranes
T2 sequence (P18507 whole entry): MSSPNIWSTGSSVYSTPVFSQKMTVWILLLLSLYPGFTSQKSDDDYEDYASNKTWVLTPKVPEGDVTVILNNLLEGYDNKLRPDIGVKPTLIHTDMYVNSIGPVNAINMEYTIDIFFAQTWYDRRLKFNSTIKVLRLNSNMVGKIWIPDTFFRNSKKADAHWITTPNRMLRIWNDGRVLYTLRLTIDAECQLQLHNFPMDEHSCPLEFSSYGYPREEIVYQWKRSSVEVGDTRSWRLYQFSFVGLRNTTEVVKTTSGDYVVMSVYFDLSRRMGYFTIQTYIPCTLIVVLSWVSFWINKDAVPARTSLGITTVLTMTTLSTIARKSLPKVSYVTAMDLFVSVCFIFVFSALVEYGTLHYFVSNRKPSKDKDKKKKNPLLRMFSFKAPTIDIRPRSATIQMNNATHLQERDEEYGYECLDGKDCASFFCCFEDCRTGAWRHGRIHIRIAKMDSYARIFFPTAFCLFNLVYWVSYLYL
T2 sequence (P28472 whole entry): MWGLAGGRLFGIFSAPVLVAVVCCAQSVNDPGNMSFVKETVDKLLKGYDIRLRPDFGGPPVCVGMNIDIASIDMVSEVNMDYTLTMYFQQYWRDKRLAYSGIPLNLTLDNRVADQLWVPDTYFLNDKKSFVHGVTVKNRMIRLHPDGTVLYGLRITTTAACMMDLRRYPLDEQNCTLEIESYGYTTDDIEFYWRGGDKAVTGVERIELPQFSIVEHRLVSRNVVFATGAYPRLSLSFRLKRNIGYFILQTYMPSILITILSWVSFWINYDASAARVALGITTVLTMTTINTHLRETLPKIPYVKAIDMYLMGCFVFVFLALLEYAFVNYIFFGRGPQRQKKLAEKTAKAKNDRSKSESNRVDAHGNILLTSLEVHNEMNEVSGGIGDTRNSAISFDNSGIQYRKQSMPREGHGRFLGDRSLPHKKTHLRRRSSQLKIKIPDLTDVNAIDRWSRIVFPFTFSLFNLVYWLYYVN
T2 sequence (P31644 whole entry): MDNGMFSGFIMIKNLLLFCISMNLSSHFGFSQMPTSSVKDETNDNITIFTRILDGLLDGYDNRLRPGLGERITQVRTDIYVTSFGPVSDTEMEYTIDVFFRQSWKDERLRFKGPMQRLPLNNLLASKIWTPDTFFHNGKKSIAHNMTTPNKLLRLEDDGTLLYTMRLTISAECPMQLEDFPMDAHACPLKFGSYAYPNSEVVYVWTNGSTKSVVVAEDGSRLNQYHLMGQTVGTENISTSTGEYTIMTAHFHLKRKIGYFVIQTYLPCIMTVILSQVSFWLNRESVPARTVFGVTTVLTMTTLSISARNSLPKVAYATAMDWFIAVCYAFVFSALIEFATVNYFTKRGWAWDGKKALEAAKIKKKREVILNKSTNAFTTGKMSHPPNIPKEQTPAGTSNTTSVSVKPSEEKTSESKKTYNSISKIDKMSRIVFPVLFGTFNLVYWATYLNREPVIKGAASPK

[15] = […] in po dosed Wister rat assessed as motor impairment by assessing NOAEL by spontaneous motor activity test; type: organism-based; settings: Wistar, in vivo
[16] = Half life in Wistar rat total plasma at 1 mg/kg, iv by HPLC-MS/MS analysis; type: ADME, organism-based
[17] = Plasma level ratio in Wistar rat assessed as ratio between plasma concentration in PCP-induced toxicity Wistar rat model to plasma concentration in pro-cognitive activity for subchronic PCP-induced cognitive impairment associated schizophrenia Wistar rat model
[18] = target: Cytochrome P450 2C19 (Homo sapiens, UniProt P33261); assay: Inhibition of CYP2C19 (unknown origin); type: ADME
[19] = Cardiovascular toxicity in po dosed dog assessed as NOAEL; type: organism-based, Canis lupus familiaris; settings: in vivo
[20] = Thermodynamic solubility of the compound at pH 6.5; type: physicochemical; settings: buffer, read-out: Therm_solubility

Sequence of Cytochrome P450 2C19 (P33261 whole entry): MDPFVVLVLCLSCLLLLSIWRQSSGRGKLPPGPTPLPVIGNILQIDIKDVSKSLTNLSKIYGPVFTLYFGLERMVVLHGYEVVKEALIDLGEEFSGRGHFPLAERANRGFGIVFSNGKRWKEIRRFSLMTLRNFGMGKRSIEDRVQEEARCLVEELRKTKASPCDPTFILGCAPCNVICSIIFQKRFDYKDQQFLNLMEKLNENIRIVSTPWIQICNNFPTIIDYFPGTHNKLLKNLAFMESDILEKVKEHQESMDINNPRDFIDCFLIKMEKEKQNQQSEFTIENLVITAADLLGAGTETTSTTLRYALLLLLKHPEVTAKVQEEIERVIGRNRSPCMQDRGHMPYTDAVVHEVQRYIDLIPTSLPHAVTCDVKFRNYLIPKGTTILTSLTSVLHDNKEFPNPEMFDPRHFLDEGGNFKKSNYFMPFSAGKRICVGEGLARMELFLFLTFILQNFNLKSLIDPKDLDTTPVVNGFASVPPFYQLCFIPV

- Activity [2]: -24%
- bioavailability [3]: 35.8%
- microsomal CLint at 2.5 µM [5]: 6 µL/min/mg
- fraction unbound [7]: 0.04
- clearance [8]: 41.3 mL/min/kg
- pIC50 [10]: 4.68
- hepatocyte CLint [11]: 19 µL/min/1e6 cells
- solubility thermodynamic [12]: 0.081 µM (≈ 0.0372 µg/mL)
- hepatocyte CLint [13]: 4 µL/min/1e6 cells
- pKi [14]: 8.39
- half-life [16]: 31.8 min
- pIC50 [18]: 4.84
- solubility thermodynamic [20]: 9.8 µM (≈ 4.5 µg/mL)
Compound: Cc1onc(-c2ccc(F)cc2)c1COc1ccc2c(n1)CCN(C(=O)CS(C)(=O)=O)C2
- NOAEL [1]: ≥ 1000 mg/kg
- NOAEL at 96 h [4]: ≥ 500 mg/kg
- minimal effective dose [6]: 10 mg/kg
- Activity [9]: Non-Toxic
- NOAEL [15]: ≥ 100 mg/kg
- Ratio [17]: 11
- NOAEL [19]: ≥ 70 mg/kg
